Reference: PMC2694832, “Pharmacokinetics, tissue distribution and mass balance of radiolabeled dihydroartemisinin in male rats” (Malaria Journal, 2009)

Test: Tissue distribution of [^14C] DHA
Assay type: in vivo, rats
Settings: for Total Amounts of radioactivity in all measured tissues per gram / % of total AUC / Half-lives of radioactivity / Tissue AUC of radioactivity / Distribution of radioactivity: male rats i.v. 3 mg/20 μCi/kg
Description: Rats treated with a single [^14C] DHA dose of 3 mg/20 μCi/kg intravenously (5 rats per group) were anesthaetized by isofluorane and euthanized via cardiac puncture at 1, 6, 24, 48, 72, 96, and 192 hours, post-dosing. Blood, liver, brain, eyes, adrenals, muscle, lungs, heart, liver, kidneys, spleen, stomach, small intestine, large intestine, perirenal fat and bone marrow samples were removed from each animal by gross dissection. The gastrointestinal tract (GI) was separated into the stomach (oesophagus and stomach), small intestine, and large intestine. Contents were procured from each GI segment. After flushing with saline, these and other tissues were stored. Tissues were rinsed gently, but thoroughly with water to remove remaining traces of blood before storage. Dissecting instruments were also washed between tissue procurements to avoid cross-contamination.
For most of the tissues 20% (w/w) aqueous homogenates of the tissue were prepared. Aqueous homogenates of the faecal and GI content samples were also prepared. Metabolism cages were washed with a solution of 2% Count-off® and the volume was measured. Radioactivity in the plasma samples and in aliquots (approx. 0.02–1.0 ml) of urine and cage washings was determined. The blood cells (primarily erythrocytes), perirenal fat (approx. 0.2 g), bone marrow samples (approx. 0.1 ml), and approximately 300-μl aliquots of the homogenates of faeces, liver, kidneys, heart, brain, stomach and carcass were solubilized with SolvableTM tissue solubilizer (Perkin-Elmer Life and Analytical Sciences, Boston, MA). The homogenates of faeces, stomach content, and intestinal contents were extracted with 50% methanol for 24 hours. Aliquots of blood and pooled urine samples from selected intervals were also analysed for DHA content directly.
Total radioactivity in the collected tissue samples were quantified in duplicate. Weighed tissue aliquots (~0.2 g) were digested overnight in 2 ml of Solvable® tissue solubilizer (Perkin-Elmer Life and Analytical Sciences, Boston, MA) at 50°C. Coloured samples were decolourized by adding a maximum of 0.2 ml of 30% H2O2 for 30–60 minutes. Scintillation cocktail (Hyonic Fluor; Perkin-Elmer Boston. Massachusetts, USA) was then added and radioactivity determined in a Perkin-Elmer Tri-Carb 3100 TR scintillation spectrophotometer (Packard Instrument Co., Downers Grove, Illinois, USA). Faeces and intestinal contents were thoroughly homogenized before taking aliquots. Plasma was also analysed using the HPLC-ECD system to measure the concentration of unchanged DHA, as described by Li et al.

## C[C@@H]1CC[C@H]2[C@@H]([14CH3])C(O)O[C@@H]3O[C@@]4(C)CC[C@@H]1[C@]32OO4 (stereo partly drawn) [[^14C] DHA, [16-^14C] DHA]
1 hr
  Total Amounts of radioactivity in all measured tissues per gram: 87,187 ng equivalents/tissue gram
1 hr, listed as [^14C]-dihydroartemisinin
  Total Amounts of radioactivity in all measured tissues per gram: 87186.55 ng equivalents/tissue gram
1 hr, rats i.v. 3 mg/20 μCi/kg
  radioactivity in the total measured tissues amassed in the small intestine and its content: approximately 62.6%
6 hr
  Total Amounts of radioactivity in all measured tissues per gram: 86023 ng equivalents/tissue gram
6 hr, listed as [^14C]-dihydroartemisinin
  Total Amounts of radioactivity in all measured tissues per gram: 86023.26 ng equivalents/tissue gram
24 hr
  Total Amounts of radioactivity in all measured tissues per gram: 21,457 ng equivalents/tissue gram
24 hr, listed as [^14C]-dihydroartemisinin
  Total Amounts of radioactivity in all measured tissues per gram: 21457.06 ng equivalents/tissue gram
48 hr
  Total Amounts of radioactivity in all measured tissues per gram: 16,390 ng equivalents/tissue gram
48 hr, listed as [^14C]-dihydroartemisinin
  Total Amounts of radioactivity in all measured tissues per gram: 16390.68 ng equivalents/tissue gram
72 hr
  Total Amounts of radioactivity in all measured tissues per gram: 15,831 ng equivalents/tissue gram
72 hr, listed as [^14C]-dihydroartemisinin
  Total Amounts of radioactivity in all measured tissues per gram: 15831.77 ng equivalents/tissue gram
96 hr
  Total Amounts of radioactivity in all measured tissues per gram: 11,385 ng equivalents/tissue gram
96 hr, listed as [^14C]-dihydroartemisinin
  Total Amounts of radioactivity in all measured tissues per gram: 11385.67 ng equivalents/tissue gram
192 hr
  Total Amounts of radioactivity in all measured tissues per gram: 13,961 ng equivalents/tissue gram
192 hr, listed as [^14C]-dihydroartemisinin
  Total Amounts of radioactivity in all measured tissues per gram: 13961.18 ng equivalents/tissue gram
Adrenals
  % of total AUC: 10.59%
  Half-lives of radioactivity: 92.48 ± 44.34 h
  Tissue AUC of radioactivity: 448,390 ng·hr/g
Adrenals, listed as [^14C]-dihydroartemisinin
  Tissue AUC of radioactivity: 448390 ± 273502 ng·h/g
Blood, 1 hr
  Distribution of radioactivity: 936.19 ng equivalents/tissue gram
Blood, 6 hr
  Distribution of radioactivity: 795.07 ng equivalents/tissue gram
Blood, 24 hr
  Distribution of radioactivity: 366.76 ng equivalents/tissue gram
Blood, 48 hr
  Distribution of radioactivity: 252.05 ng equivalents/tissue gram
Blood, 72 hr
  Distribution of radioactivity: 194.59 ng equivalents/tissue gram
Blood, 96 hr
  Distribution of radioactivity: 130.92 ng equivalents/tissue gram
Blood, 192 hr
  Distribution of radioactivity: 118.71 ng equivalents/tissue gram
Blood
  % of total AUC: 1.07%
  Half-lives of radioactivity: 122.13 ± 8.73 h
  Tissue AUC of radioactivity: 45463 ± 6810 ng·h/g
Brain
  % of total AUC: 0.81%
  Half-lives of radioactivity: 72.21 ± 6.33 h
  Tissue AUC of radioactivity: 34,189 ng·hr/g
Brain, listed as [^14C]-dihydroartemisinin
  Tissue AUC of radioactivity: 34189 ± 4885 ng·h/g
Eyes
  % of total AUC: 0.39%
  Half-lives of radioactivity: 75.22 ± 9.40 h
  Tissue AUC of radioactivity: 16519 ± 3048 ng·h/g
Fat
  % of total AUC: 0.60%
  Half-lives of radioactivity: 131.69 ± 21.94 h
  Tissue AUC of radioactivity: 25253 ± 1490 ng·h/g
Heart, 1 hr
  Distribution of radioactivity: 1512.27 ng equivalents/tissue gram
Heart, 6 hr
  Distribution of radioactivity: 1107.89 ng equivalents/tissue gram
Heart, 24 hr
  Distribution of radioactivity: 647.58 ng equivalents/tissue gram
Heart, 48 hr
  Distribution of radioactivity: 527.3 ng equivalents/tissue gram
Heart, 72 hr
  Distribution of radioactivity: 568.43 ng equivalents/tissue gram
Heart, 96 hr
  Distribution of radioactivity: 377.26 ng equivalents/tissue gram
Heart, 192 hr
  Distribution of radioactivity: 443.20 ng equivalents/tissue gram
Heart
  % of total AUC: 2.47%
  Half-lives of radioactivity: 74.35 ± 25.84 h
  Tissue AUC of radioactivity: 104,598 ng·hr/g
Heart, listed as [^14C]-dihydroartemisinin
  Tissue AUC of radioactivity: 104598 ± 24036 ng·h/g
Kidneys, 1 hr
  Distribution of radioactivity: 4097.87 ng equivalents/tissue gram
Kidneys, 6 hr
  Distribution of radioactivity: 4502.00 ng equivalents/tissue gram
Kidneys, 24 hr
  Distribution of radioactivity: 2535.56 ng equivalents/tissue gram
Kidneys, 48 hr
  Distribution of radioactivity: 2324.72 ng equivalents/tissue gram
Kidneys, 72 hr
  Distribution of radioactivity: 3286.27 ng equivalents/tissue gram
Kidneys, 96 hr
  Distribution of radioactivity: 1802.63 ng equivalents/tissue gram
Kidneys, 192 hr
  Distribution of radioactivity: 1819.89 ng equivalents/tissue gram
Kidneys
  % of total AUC: 4.53%
  Half-lives of radioactivity: 77.90 ± 8.41 h
  Tissue AUC of radioactivity: 191,781 ng·hr/g
Kidneys, listed as [^14C]-dihydroartemisinin
  Tissue AUC of radioactivity: 191781 ± 66422 ng·h/g
LI Content, 1 hr
  Distribution of radioactivity: 2914.59 ng equivalents/tissue gram
LI Content, 6 hr
  Distribution of radioactivity: 35567.01 ng equivalents/tissue gram
LI Content, 24 hr
  Distribution of radioactivity: 5127.28 ng equivalents/tissue gram
LI Content, 48 hr
  Distribution of radioactivity: 2037.53 ng equivalents/tissue gram
LI Content, 72 hr
  Distribution of radioactivity: 1426.62 ng equivalents/tissue gram
LI Content, 96 hr
  Distribution of radioactivity: 491.66 ng equivalents/tissue gram
LI Content, 192 hr
  Distribution of radioactivity: 1333.83 ng equivalents/tissue gram
LI Content
  % of total AUC: 13.90%
  Half-lives of radioactivity: 37.20 ± 6.08 h
  Tissue AUC of radioactivity: 588,542 ng·hr/g
LI Content, listed as [^14C]-dihydroartemisinin
  Tissue AUC of radioactivity: 588542 ± 104261 ng·h/g
Large intestine (LI), 1 hr
  Distribution of radioactivity: 1818.56 ng equivalents/tissue gram
Large intestine (LI), 6 hr
  Distribution of radioactivity: 8394.43 ng equivalents/tissue gram
Large intestine (LI), 24 hr
  Distribution of radioactivity: 1420.58 ng equivalents/tissue gram
Large intestine (LI), 48 hr
  Distribution of radioactivity: 562.96 ng equivalents/tissue gram
Large intestine (LI), 72 hr
  Distribution of radioactivity: 509.29 ng equivalents/tissue gram
Large intestine (LI), 96 hr
  Distribution of radioactivity: 220.41 ng equivalents/tissue gram
Large intestine (LI), 192 hr
  Distribution of radioactivity: 304.72 ng equivalents/tissue gram
Large intestine (LI)
  % of total AUC: 1.66%
  Half-lives of radioactivity: 62.53 ± 43.59 h
  Tissue AUC of radioactivity: 70,217 ng·hr/g
Large intestine (LI), listed as [^14C]-dihydroartemisinin
  Tissue AUC of radioactivity: 70217 ± 25001 ng·h/g
Liver, 1 hr
  Distribution of radioactivity: 4594.85 ng equivalents/tissue gram
Liver, 6 hr
  Distribution of radioactivity: 3516.69 ng equivalents/tissue gram
Liver, 24 hr
  Distribution of radioactivity: 1403.29 ng equivalents/tissue gram
Liver, 48 hr
  Distribution of radioactivity: 1104.94 ng equivalents/tissue gram
Liver, 72 hr
  Distribution of radioactivity: 1503.74 ng equivalents/tissue gram
Liver, 96 hr
  Distribution of radioactivity: 842.90 ng equivalents/tissue gram
Liver, 192 hr
  Distribution of radioactivity: 1270.24 ng equivalents/tissue gram
Liver
  % of total AUC: 4.07%
  Half-lives of radioactivity: 95.18 ± 37.90 h
  Tissue AUC of radioactivity: 172,474 ng·hr/g
Liver, listed as [^14C]-dihydroartemisinin
  Tissue AUC of radioactivity: 172474 ± 85780 ng·h/g
Lungs, 1 hr
  Distribution of radioactivity: 1161.72 ng equivalents/tissue gram
Lungs, 6 hr
  Distribution of radioactivity: 1040.99 ng equivalents/tissue gram
